Each block holds one molecule with its values, some of them ahead of it.
Experiments:
[1] = molecular target: T1, PfPKG (Plasmodium falciparum, UniProt Q8I719); test: in vitro PfPKG kinase inhibition assay; format: biochemical; details: […] compound
[2] = molecular target: T1, PfPKG; test: in vitro PfPKG kinase inhibition assay; format: biochemical
[3] = molecular target: CYP3A4 (Homo sapiens, UniProt P08684); test: in vitro CYP3A4 inhibition; format: cell-based
[4] = molecular target: hERG (Homo sapiens, UniProt Q12809); details: HEK293, 10 µM
Chain of hERG (Q12809 whole entry): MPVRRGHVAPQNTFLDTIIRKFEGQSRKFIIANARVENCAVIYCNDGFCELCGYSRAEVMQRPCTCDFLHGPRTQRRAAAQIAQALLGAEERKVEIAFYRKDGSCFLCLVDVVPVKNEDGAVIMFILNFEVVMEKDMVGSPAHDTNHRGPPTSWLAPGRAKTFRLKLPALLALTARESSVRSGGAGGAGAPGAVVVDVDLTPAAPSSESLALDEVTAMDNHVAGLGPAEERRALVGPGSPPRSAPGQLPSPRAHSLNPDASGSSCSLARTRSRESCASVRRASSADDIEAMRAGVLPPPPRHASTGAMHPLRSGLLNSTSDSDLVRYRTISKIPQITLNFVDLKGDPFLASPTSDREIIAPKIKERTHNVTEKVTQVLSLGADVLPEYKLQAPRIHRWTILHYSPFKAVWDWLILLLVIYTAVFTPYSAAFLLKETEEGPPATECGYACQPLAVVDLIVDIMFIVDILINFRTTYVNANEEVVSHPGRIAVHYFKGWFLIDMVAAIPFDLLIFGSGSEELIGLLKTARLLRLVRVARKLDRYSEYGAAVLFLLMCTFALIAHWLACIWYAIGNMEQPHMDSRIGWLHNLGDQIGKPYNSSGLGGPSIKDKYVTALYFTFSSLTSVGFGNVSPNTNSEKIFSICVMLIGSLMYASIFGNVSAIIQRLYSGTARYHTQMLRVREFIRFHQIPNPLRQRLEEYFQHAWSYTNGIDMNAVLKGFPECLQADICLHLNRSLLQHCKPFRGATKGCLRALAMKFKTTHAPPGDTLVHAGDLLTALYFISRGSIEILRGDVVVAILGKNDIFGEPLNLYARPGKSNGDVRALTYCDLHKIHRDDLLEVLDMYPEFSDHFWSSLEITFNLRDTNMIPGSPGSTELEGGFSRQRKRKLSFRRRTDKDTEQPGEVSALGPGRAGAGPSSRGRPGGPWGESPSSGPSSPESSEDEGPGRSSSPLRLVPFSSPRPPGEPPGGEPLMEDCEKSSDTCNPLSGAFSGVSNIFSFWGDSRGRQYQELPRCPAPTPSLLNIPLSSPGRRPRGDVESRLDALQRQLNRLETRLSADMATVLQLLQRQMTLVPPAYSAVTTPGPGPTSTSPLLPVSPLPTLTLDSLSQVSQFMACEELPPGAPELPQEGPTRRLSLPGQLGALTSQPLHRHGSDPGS

[5] = liver microsomes
[6] = liver microsomes; remark: listed apart in the source
[7] = in vitro; parameters: species or system primary non-human primate hepatocytes; details: monkey, primary hepatocytes
[8] = tested on: P. berghei; test: microbe, parasite or virus in culture; details: Plasmodium berghei, HepG2, read-out: % inhibition
[9] = in vitro; parameters: species or system primary non-human primate hepatocytes; details: monkey, primary hepatocytes; remark: listed apart in the source
[10] = molecular target: 2C9 (Homo sapiens, UniProt P11712); test: biochemical
Chain of 2C9 (P11712 whole entry): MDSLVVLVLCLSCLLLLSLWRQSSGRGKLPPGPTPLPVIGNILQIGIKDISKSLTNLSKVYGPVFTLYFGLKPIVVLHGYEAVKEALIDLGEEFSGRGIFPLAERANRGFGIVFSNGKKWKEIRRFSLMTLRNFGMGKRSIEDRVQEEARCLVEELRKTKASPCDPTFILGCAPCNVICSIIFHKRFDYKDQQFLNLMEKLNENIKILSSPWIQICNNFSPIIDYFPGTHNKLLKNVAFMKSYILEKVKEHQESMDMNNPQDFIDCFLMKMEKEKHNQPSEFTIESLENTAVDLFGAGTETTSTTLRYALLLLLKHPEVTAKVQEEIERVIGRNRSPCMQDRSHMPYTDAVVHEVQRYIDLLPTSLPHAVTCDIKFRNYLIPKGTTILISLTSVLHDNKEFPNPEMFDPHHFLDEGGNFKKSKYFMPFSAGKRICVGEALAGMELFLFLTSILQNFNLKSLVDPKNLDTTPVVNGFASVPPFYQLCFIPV

[11] = molecular target: 2D6 (Homo sapiens, UniProt P10635); test: biochemical
Chain of 2D6 (P10635 whole entry): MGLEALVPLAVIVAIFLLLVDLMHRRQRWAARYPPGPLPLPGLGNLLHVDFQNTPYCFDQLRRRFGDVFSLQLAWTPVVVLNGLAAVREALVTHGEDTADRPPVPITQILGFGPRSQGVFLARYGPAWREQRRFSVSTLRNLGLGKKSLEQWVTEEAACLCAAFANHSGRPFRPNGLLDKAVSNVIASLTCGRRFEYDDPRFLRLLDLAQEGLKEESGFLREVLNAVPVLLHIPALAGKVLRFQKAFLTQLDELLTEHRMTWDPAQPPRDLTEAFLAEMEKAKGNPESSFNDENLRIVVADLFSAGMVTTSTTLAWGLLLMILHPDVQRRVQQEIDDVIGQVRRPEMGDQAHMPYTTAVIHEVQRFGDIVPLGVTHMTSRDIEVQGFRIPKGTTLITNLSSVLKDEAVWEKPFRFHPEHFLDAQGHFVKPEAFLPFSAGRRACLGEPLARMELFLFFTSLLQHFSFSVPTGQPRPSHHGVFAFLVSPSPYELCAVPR

[12] = molecular target: T1, PfPKG; test: in vitro PfPKG kinase inhibition assay; format: biochemical; details: […] compound; remark: listed apart in the source

T1 sequence (Q8I719 whole entry): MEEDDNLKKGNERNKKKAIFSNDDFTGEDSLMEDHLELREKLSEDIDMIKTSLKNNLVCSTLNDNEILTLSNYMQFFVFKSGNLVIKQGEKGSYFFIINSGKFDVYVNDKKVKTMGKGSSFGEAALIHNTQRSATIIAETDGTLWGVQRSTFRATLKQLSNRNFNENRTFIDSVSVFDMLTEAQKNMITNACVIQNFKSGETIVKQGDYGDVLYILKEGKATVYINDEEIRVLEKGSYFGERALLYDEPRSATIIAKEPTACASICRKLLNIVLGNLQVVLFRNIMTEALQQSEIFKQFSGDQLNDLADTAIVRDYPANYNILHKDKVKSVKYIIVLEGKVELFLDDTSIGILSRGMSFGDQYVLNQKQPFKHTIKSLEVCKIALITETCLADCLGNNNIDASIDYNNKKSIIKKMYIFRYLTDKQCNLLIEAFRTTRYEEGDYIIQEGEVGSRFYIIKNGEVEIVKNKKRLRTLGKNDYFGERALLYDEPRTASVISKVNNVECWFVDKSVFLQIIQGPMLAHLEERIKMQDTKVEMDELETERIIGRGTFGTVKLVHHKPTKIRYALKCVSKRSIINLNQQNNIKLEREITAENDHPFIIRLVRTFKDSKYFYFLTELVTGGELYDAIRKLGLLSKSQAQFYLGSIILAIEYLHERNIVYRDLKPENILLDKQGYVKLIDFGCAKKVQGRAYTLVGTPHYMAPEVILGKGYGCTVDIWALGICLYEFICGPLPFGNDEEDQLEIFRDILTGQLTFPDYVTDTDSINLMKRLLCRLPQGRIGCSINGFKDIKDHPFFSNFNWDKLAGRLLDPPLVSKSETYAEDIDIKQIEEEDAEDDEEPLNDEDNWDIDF
Chain of CYP3A4 (P08684 2-503): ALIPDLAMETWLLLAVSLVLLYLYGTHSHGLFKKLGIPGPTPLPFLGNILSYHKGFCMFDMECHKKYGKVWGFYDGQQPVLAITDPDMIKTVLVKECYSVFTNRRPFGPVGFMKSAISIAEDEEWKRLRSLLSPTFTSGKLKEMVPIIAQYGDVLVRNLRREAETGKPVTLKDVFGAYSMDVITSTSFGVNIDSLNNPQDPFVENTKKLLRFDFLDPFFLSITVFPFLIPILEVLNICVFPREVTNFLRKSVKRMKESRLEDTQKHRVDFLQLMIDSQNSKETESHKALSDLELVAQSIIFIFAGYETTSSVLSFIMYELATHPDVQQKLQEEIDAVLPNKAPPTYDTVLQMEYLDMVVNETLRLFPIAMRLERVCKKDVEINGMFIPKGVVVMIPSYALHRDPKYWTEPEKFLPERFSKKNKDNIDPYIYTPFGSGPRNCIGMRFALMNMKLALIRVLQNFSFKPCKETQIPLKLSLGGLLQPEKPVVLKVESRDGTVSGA

SMILES: Cc1cn(-c2ccnc(N[C@@H]3CCN(C(=O)c4ccn(C)n4)C3)n2)c(-c2ccccc2)n1 [10b]
IC50 [2]: 1000 nM

SMILES: O=C(c1nccs1)N1CC[C@@H](Nc2nccc(-n3cc(C4CC4)nc3-c3ccccc3)n2)C1 [14a]
IC50 [3]: < 300 nM | hERG % inh. @ 10 uM [4]: 1% | IC50 [2]: 100 nM | MLM t1/2 [5]: < 2 min | HLM t1/2 [6]: 4.8 min

SMILES: O=C(c1nccs1)N1CC[C@@H](Nc2nccc(-n3cc(C4CC4)nc3-c3cccc(Cl)c3)n2)C1 [14b]
IC50 [3]: < 300 nM | hERG % inh. @ 10 uM [4]: 9% | IC50 [2]: 60 nM | CC50 at 96 h [7]: > 20 µM | MLM t1/2 [5]: <2 min | inhibition at 2 µM [8]: 94 ± 3% | inhibition at 10 µM [8]: 93 ± 3% | HLM t1/2 [6]: 3.7 min | CC50 at 96 h [9]: > 20 µM

SMILES: Cc1cn(-c2ccnc(N[C@@H]3CCN(C(=O)c4nccs4)C3)n2)c(-c2ccccc2)n1 [10a]
IC50 [10]: > 10 µM | IC50 [2]: 320 nM | CC50 at 96 h [7]: > 20 µM | MLM t1/2 [5]: < 2 min | IC50 [11]: > 10 µM | inhibition at 2 µM [8]: 78 ± 20% | inhibition at 10 µM [8]: 89 ± 7% | HLM t1/2 [6]: < 2 min | CC50 at 96 h [9]: > 20 µM

SMILES: Cc1cn(-c2ccnc(N[C@H]3CCN(C(=O)c4nccs4)C3)n2)c(-c2ccccc2)n1 [10c]
% inh @ 1 uM [12]: 4%

SMILES: Cc1cn(-c2ccnc(NC3CCCN(C(=O)c4nccs4)C3)n2)c(-c2ccccc2)n1 (racemic) [10d]
% inh @ 1 uM [12]: 4%

Results, then the molecule that gave them:

% inhib @ 1 uM [1]: 47%
SMILES: Cc1cn(-c2ccnc(N[C@@H]3CCN(C(=O)c4nccs4)C3)n2)c(-c2ccccc2Cl)n1 [18b]

IC50 [2]: 150 nM
SMILES: Cc1cn(-c2ccnc(N[C@@H]3CCN(C(=O)c4nccs4)C3)n2)c(-c2cccc(OC(F)(F)F)c2)n1 [18d]

IC50 [2]: 86 nM
SMILES: COc1cccc(-c2nc(C)cn2-c2ccnc(N[C@@H]3CCN(C(=O)c4nccs4)C3)n2)c1 [18a]

IC50 [2]: 1160 nM
SMILES: Cc1cn(-c2ccnc(N[C@@H]3CCN(C(=O)c4nccs4)C3)n2)c(-c2ccc(Cl)cc2)n1 [18c]

From article doi:10.1101/2021.08.24.457553v1 (biorxiv, 2021)
